Tests used:
[1] = target: T1, D(3) dopamine receptor (Homo sapiens, UniProt P35462); experiment: Displacement of [3H]domperidone from human cloned dopamine D3 receptor expressed in mouse CCL1-3 cells by scintillation counting; assay type: cell-based
[2] = target: T2, D(1A) dopamine receptor (Rattus norvegicus, UniProt P18901); experiment: Binding affinity to dopamine D1 receptor low binding site by radioligand displacement assay
[3] = target: T2, D(1A) dopamine receptor; experiment: Binding affinity to dopamine D1 receptor high binding site by radioligand displacement assay
[4] = target: T1, D(3) dopamine receptor; experiment: Displacement of [3H]domperidone from human cloned dopamine D3 receptor high binding site expressed in mouse CCL1-3 cells by scintillation counting; assay type: cell-based
[5] = target: D(2) dopamine receptor (Rattus norvegicus, UniProt P61169); experiment: Displacement of [3H]domperidone from dopamine D2 receptor low binding site in Sprague-Dawley rat striatum by scintillation counting
Chain of D(2) dopamine receptor (P61169 whole entry): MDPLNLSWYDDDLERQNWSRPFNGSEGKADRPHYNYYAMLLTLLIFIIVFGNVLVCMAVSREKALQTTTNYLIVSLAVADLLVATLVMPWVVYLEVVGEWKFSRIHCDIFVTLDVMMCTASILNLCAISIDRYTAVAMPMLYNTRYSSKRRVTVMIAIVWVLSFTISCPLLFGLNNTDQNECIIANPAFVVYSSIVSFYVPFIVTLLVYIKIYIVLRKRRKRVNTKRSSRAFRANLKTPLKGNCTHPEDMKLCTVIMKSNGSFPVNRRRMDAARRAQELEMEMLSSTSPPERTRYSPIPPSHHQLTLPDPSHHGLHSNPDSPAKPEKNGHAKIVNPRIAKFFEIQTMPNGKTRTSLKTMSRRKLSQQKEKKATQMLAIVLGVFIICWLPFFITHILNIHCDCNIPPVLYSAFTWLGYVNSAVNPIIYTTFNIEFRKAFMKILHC

[6] = target: T1, D(3) dopamine receptor; experiment: Displacement of [3H]domperidone from human dopamine D3 receptor expressed in human HEK293 cells by scintillation counting; assay type: cell-based

T2 sequence (P18901 whole entry): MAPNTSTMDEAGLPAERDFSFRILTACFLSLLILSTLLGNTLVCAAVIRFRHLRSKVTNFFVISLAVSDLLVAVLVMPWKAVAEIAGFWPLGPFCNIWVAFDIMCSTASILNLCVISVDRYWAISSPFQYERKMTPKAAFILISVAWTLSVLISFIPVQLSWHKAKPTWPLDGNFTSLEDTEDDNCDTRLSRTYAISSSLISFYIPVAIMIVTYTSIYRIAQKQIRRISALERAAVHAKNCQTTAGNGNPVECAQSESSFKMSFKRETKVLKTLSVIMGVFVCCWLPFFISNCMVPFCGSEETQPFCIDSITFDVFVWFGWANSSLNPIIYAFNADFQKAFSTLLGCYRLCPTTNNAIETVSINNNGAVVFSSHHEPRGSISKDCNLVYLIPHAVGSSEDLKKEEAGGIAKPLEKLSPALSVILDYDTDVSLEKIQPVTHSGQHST
T1 sequence (P35462 whole entry): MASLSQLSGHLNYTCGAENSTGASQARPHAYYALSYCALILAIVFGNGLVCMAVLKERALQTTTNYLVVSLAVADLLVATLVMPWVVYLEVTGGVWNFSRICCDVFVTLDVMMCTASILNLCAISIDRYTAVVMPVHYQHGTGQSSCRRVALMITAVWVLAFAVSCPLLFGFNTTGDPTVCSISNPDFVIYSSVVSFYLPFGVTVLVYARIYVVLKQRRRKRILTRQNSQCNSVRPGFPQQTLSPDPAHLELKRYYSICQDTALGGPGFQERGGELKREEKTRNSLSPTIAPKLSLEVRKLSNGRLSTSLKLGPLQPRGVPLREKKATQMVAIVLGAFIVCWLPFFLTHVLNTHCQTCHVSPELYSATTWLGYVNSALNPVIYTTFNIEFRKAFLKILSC

Row | SMILES | Ki [1] | Ki [2] | Ki [3] | Ki [4] | Ki [5] | Ki [6]
1 | CCCN1CCc2cc(F)cc3c2[C@H]1Cc1ccc(O)c(O)c1-3 | > 10 µM | > 5 µM | Not Active | 0.0038 µM | – | –
2 | Oc1cccc2c1-c1cccc3c1[C@@H](C2)N(CCCF)CC3 | – | > 5 µM | Not Active | – | – | –
3 | CCCN1CCc2cc(OCCCF)cc3c2[C@H]1Cc1ccc(O)c(O)c1-3 | – | > 5 µM | Not Active | 0.0011 µM | – | –
4 | CCCN1CCc2cc(OCCF)cc3c2[C@H]1Cc1ccc(O)c(O)c1-3 | – | > 5 µM | Not Active | 0.0019 µM | – | –
5 | CCN1CCc2cc(OCCCF)cc3c2[C@H]1Cc1ccc(O)c(O)c1-3 | > 10 µM | > 5 µM | Not Active | 0.23 µM | – | –
6 | CCN1CCc2cc(OCCF)cc3c2[C@H]1Cc1ccc(O)c(O)c1-3 | > 10 µM | > 5 µM | Not Active | 0.25 µM | – | –
7 | CN1CCc2cc(OCCCF)cc3c2[C@H]1Cc1ccc(O)c(O)c1-3 | > 10 µM | > 5 µM | Not Active | – | > 10 µM | –
8 | CN1CCc2cc(OCCF)cc3c2[C@H]1Cc1ccc(O)c(O)c1-3 | > 10 µM | 3.7 µM | Not Active | – | – | –
9 | CCCN1CCc2cc(OCCCF)cc3c2[C@H]1Cc1cccc(O)c1-3 | – | > 5 µM | Not Active | – | – | –
10 | CCCN1CCc2cc(OCCF)cc3c2[C@H]1Cc1cccc(O)c1-3 | – | > 5 µM | Not Active | – | – | –
11 | CCN1CCc2cc(OCCCF)cc3c2[C@H]1Cc1cccc(O)c1-3 | – | > 5 µM | Not Active | – | – | –
12 | CCN1CCc2cc(OCCF)cc3c2[C@H]1Cc1cccc(O)c1-3 | – | > 5 µM | Not Active | – | – | –
13 | CN1CCc2cc(OCCF)cc3c2[C@H]1Cc1cccc(O)c1-3 | – | – | Not Active | – | – | –
14 | CCCN1CCc2cccc3c2[C@H]1Cc1cccc(O)c1-3 | – | – | Not Active | 0.0012 µM | – | –
15 | CCCN1CCc2cc(OC)cc3c2[C@H]1Cc1cccc(O)c1-3 | > 10 µM | – | Not Active | 0.13 µM | – | –
16 | CCCN1CCc2cc(OC)cc3c2[C@H]1Cc1ccc(O)c(O)c1-3 | – | > 5 µM | – | – | – | 0.00102 µM
